Assay results taken from the kinase profiling compilation of Christmann-Franck et al. (2016).

What was measured:
Experiment in all cases: KINOMEscan competition binding
Settings in all cases: compound 10.0 µM
[1] = biological target: ACVR2A (human) (UniProt P27037)
[2] = biological target: ADCK4 (human) (UniProt Q96D53)
[3] = biological target: AURKA (human) (UniProt O14965)
[4] = biological target: BTK (human) (UniProt Q06187)
[5] = biological target: CAMK2G (human) (UniProt Q13555)
[6] = biological target: CAMK4 (human) (UniProt Q16566)
[7] = biological target: CDK15 (human) (UniProt Q96Q40)
[8] = biological target: DAPK3 (human) (UniProt O43293)
[9] = biological target: DCLK1 (human) (UniProt O15075)
[10] = biological target: EIF2AK2 (human) (UniProt P19525)
[11] = biological target: EPHA1 (human) (UniProt P21709)
[12] = biological target: FES (human) (UniProt P07332)
[13] = biological target: FGFR2 (human) (UniProt P21802)
[14] = biological target: GAK (human) (UniProt O14976)
[15] = biological target: GSK3A (human) (UniProt P49840)
[16] = biological target: JAK2 JH1 catalytic (human) (UniProt O60674)
[17] = biological target: KIT (human) (UniProt P10721)
[18] = biological target: LCK (human) (UniProt P06239)
[19] = biological target: MAP2K3 (human) (UniProt P46734)
[20] = biological target: MAP2K4 (human) (UniProt P45985)
[21] = biological target: MAP3K3 (human) (UniProt Q99759)
[22] = biological target: MAPK1 (human) (UniProt P28482)
[23] = biological target: MARK1 (human) (UniProt Q9P0L2)
[24] = biological target: MINK1 (human) (UniProt Q8N4C8)
[25] = biological target: MST4 (human) (UniProt Q9P289)
[26] = biological target: MYO3B (human) (UniProt Q8WXR4)
[27] = biological target: PHKG1 (human) (UniProt Q16816)
[28] = biological target: PIK3CD (human) (UniProt O00329)
[29] = biological target: PRKAA2 (human) (UniProt P54646)
[30] = biological target: PRKX (human) (UniProt P51817)
[31] = biological target: RIOK3 (human) (UniProt O14730)
[32] = biological target: RIPK1 (human) (UniProt Q13546)
[33] = biological target: STK17A (human) (UniProt Q9UEE5)
[34] = biological target: STK38L (human) (UniProt Q9Y2H1)
[35] = biological target: CAMK2B (human) (UniProt Q13554)

DAPK3 (human), sequence (O43293 whole entry, looked up): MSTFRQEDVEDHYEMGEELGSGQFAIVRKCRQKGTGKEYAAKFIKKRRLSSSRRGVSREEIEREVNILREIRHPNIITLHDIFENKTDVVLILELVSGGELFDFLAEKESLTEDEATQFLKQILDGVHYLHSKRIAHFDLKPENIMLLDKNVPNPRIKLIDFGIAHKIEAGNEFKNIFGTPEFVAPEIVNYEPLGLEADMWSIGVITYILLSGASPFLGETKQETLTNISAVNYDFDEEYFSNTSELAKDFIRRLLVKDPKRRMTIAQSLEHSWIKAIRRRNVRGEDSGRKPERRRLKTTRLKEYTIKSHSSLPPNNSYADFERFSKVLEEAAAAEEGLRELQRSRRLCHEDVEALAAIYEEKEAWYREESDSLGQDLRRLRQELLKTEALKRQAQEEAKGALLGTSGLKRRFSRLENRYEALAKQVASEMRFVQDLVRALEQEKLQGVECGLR
KIT (human), sequence (P10721 whole entry, looked up): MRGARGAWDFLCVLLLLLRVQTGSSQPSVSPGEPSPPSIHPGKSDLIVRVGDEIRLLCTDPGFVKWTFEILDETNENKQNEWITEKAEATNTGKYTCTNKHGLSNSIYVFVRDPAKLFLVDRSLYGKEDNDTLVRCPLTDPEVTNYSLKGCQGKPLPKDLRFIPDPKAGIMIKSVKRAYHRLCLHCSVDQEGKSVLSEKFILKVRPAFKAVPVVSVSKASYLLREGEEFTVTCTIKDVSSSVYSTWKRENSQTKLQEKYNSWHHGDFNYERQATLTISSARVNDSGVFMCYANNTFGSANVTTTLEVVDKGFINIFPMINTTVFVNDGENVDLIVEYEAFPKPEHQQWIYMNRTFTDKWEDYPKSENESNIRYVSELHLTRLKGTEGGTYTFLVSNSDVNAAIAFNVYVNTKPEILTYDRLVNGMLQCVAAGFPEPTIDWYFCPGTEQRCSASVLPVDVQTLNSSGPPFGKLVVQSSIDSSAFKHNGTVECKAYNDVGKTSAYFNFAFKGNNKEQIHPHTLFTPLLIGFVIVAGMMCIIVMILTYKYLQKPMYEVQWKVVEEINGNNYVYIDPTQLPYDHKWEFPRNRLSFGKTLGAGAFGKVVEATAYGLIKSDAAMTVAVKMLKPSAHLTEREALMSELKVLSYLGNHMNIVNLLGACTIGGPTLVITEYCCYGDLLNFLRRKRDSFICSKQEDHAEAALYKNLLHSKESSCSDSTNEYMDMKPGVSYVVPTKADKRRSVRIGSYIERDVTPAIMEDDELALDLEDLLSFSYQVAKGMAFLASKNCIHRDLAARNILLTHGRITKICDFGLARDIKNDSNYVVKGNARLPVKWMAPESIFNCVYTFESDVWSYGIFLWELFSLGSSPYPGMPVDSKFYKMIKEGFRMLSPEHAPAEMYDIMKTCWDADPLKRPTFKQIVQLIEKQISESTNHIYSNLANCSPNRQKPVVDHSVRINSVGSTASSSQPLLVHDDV
MYO3B (human), sequence (Q8WXR4 whole entry, looked up): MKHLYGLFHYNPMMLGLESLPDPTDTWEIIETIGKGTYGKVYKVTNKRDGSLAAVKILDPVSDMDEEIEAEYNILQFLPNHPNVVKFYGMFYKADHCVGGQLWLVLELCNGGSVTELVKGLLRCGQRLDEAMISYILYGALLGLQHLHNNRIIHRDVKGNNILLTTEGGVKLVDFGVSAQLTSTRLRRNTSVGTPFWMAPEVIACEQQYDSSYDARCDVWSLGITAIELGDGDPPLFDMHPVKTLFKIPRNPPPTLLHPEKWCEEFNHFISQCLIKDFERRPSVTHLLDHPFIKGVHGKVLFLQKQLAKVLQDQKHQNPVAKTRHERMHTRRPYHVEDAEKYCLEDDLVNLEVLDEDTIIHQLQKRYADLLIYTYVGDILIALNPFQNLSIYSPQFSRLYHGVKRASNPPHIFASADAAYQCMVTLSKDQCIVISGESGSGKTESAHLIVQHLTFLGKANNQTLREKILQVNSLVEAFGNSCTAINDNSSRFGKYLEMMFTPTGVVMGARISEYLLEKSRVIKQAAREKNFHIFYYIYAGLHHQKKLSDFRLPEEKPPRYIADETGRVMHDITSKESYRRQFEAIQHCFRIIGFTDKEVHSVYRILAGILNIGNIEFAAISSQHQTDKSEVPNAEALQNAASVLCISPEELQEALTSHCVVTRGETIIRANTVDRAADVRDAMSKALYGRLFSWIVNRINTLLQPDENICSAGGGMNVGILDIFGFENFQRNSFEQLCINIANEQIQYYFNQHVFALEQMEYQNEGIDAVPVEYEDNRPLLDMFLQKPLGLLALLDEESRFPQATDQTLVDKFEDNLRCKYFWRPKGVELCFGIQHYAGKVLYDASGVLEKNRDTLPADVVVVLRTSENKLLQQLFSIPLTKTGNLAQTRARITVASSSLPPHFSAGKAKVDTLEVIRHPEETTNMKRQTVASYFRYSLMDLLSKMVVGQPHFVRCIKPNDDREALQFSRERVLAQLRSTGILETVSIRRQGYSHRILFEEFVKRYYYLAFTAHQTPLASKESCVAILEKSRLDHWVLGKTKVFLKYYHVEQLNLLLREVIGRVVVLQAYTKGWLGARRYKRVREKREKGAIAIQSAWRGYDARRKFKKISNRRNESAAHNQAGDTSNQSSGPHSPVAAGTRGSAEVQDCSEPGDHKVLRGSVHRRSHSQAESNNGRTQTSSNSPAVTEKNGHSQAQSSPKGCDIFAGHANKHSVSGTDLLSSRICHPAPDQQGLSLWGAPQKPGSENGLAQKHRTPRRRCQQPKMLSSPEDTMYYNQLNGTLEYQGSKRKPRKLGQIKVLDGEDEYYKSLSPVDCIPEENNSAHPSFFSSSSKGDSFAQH
MARK1 (human), sequence (Q9P0L2 whole entry, looked up): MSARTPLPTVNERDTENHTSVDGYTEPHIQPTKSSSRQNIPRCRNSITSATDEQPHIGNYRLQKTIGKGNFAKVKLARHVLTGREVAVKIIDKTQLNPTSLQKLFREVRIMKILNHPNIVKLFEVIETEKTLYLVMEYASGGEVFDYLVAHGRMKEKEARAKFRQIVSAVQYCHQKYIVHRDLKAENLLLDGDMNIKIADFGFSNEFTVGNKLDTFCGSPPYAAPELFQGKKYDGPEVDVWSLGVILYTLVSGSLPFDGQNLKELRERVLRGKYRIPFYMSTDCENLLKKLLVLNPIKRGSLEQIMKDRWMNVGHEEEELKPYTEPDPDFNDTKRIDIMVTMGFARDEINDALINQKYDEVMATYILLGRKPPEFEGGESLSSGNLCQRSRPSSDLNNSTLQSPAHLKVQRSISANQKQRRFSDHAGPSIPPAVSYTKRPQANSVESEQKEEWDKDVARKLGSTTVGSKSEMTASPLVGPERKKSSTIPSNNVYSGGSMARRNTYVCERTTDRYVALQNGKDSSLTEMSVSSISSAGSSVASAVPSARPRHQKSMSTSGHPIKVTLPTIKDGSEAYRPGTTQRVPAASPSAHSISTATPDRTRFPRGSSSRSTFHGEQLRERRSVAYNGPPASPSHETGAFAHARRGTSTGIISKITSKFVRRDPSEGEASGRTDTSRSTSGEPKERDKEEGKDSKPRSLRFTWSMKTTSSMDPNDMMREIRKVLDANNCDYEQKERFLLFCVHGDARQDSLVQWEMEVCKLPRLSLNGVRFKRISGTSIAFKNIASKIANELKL
MAP2K4 (human), sequence (P45985 whole entry, looked up): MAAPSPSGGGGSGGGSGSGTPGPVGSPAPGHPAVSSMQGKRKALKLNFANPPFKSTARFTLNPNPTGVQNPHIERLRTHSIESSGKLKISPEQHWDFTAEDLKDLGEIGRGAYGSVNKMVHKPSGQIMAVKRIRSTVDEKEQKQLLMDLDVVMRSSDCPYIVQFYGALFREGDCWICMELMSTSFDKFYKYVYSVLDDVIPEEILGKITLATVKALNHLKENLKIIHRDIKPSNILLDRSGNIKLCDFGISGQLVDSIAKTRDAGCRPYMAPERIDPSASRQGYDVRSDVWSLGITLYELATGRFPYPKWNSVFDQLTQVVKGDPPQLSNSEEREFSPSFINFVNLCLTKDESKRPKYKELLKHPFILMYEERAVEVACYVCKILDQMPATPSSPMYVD
AURKA (human), sequence (O14965 whole entry, looked up): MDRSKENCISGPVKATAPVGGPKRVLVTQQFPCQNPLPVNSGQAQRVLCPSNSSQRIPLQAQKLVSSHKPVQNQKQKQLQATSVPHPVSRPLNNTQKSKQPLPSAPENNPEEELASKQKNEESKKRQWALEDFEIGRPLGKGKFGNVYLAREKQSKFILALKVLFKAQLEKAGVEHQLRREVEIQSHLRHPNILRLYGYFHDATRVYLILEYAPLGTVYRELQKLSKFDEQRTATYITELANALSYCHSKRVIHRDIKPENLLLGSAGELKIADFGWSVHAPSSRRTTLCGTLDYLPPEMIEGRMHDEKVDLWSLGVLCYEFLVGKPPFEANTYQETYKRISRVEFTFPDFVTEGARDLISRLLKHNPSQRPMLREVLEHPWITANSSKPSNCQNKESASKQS
PHKG1 (human), sequence (Q16816 whole entry, looked up): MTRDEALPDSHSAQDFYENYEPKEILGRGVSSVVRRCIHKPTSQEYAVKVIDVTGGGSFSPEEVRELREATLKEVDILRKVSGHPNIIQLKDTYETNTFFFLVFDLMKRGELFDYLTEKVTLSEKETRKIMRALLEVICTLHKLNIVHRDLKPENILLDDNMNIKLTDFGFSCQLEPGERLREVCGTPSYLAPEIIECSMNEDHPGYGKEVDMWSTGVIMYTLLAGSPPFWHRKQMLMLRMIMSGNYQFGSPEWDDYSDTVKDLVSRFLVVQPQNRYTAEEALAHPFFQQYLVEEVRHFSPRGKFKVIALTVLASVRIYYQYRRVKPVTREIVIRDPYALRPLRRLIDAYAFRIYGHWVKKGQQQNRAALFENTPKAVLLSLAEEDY

Structure (SMILES)	kinase still bound, per cent of control [1]	kinase still bound, per cent of control [2]	kinase still bound, per cent of control [3]	kinase still bound, per cent of control [4]	kinase still bound, per cent of control [5]	kinase still bound, per cent of control [6]	kinase still bound, per cent of control [8]	kinase still bound, per cent of control [9]	kinase still bound, per cent of control [10]	kinase still bound, per cent of control [11]	kinase still bound, per cent of control [12]	kinase still bound, per cent of control [14]	kinase still bound, per cent of control [15]	kinase still bound, per cent of control [16]	kinase still bound, per cent of control [17]	kinase still bound, per cent of control [18]	kinase still bound, per cent of control [19]	kinase still bound, per cent of control [20]	kinase still bound, per cent of control [22]	kinase still bound, per cent of control [23]	other results
Cc1n[nH]c2ccc(-c3cncc(OC[C@@H](N)Cc4c[nH]c5ccccc45)c3)cc12	100%	100%	100%	100%	5.4%	12%	2.3%	100%	100%	100%	100%	8.1%	1%	100%	100%	100%	7.1%	100%	100%	100%	kinase still bound, per cent of control [7]: 16%; kinase still bound, per cent of control [13]: 100%; kinase still bound, per cent of control [21]: 29%; kinase still bound, per cent of control [24]: 6.2%; kinase still bound, per cent of control [25]: 30%; kinase still bound, per cent of control [26]: 100%; kinase still bound, per cent of control [27]: 8%; kinase still bound, per cent of control [28]: 100%; kinase still bound, per cent of control [29]: 100%; kinase still bound, per cent of control [30]: 12%; kinase still bound, per cent of control [31]: 2.7%; kinase still bound, per cent of control [32]: 100%; kinase still bound, per cent of control [33]: 5.4%; kinase still bound, per cent of control [34]: 100%
CCN(CC)CCCCNc1ncc2cc(-c3cc(OC)cc(OC)c3)c(NC(=O)NC(C)(C)C)nc2n1	100%	100%	100%	100%	100%	100%	100%	100%	24%	100%	100%	100%	100%	100%	100%	22%	100%	100%	100%	100%	kinase still bound, per cent of control [35]: 100%; kinase still bound, per cent of control [25]: 100%; kinase still bound, per cent of control [26]: 100%; kinase still bound, per cent of control [27]: 100%; kinase still bound, per cent of control [29]: 100%; kinase still bound, per cent of control [30]: 100%; kinase still bound, per cent of control [31]: 100%; kinase still bound, per cent of control [32]: 100%; kinase still bound, per cent of control [33]: 100%; kinase still bound, per cent of control [34]: 100%
